Molecules are shown by their SMILES.

A word on the IC50: it is the concentration needed to halve the response being measured.

Holding throughout (assay type): cell-based, human
For assay [1], the system named is control and patient fibroblasts. Kind of assay: Toxicity assay (Trypan blue cell counting after 72 h). The settings on record: Homo sapiens, Fibroblast, control and patient fibroblasts, living cells vs DMSO, read-out: calculated IC50 (toxicity). Here is the method:
Skin punches were obtained from patients after informed consent. Primary fibroblast cultures were established using standard procedures in RPMI supplemented with 10% Fetal Bovine Serum (FBS), 45 μg/mL uridine and 275 μg/mL sodium pyruvate (Bannwarth et al., 2014). Primary fibroblast cultures were maintained in Dulbecco's Modified Eagle Medium supplemented with 10% FBS, penicillin (100 U/mL) and streptomycin (0.1 mg/mL) at 37° C. in a humidified incubator with 5% CO2. Cells were plated in six well plates in glucose medium (DMEM, 10% FBS, penicillin (100 U/mL) and streptomycin (0.1 mg/mL)) and incubated at 37° C. in a humidified incubator with 5% CO2. After 24h, one well was treated with DMSO, the other wells were treated with rising concentrations of […] or NFO. 72 h after the treatment, the cells were trypsinized, stained with Trypan blue and counted with a Malassez cell. The ratio of each concentration compared to the DMSO control has been plotted and the IC50 has been calculated using the nonlinear regression on the software GraphpadPrism 8.

For the next assay, the system named is patient fibroblasts. Kind of assay: Electron microscopy of mitochondrial morphology in fibroblasts. The following applies: 72 h after treatment. As for the experimental part: Cells were seeded on 24 wells/plate, fixed with 1.6% glutaraldehyde in 0.1 M cacodylate buffer (pH 7.4) for 2 hours, rinsed and postfixed in 1% osmium tetroxide and 1% potassium ferrocyanide in 0.1 M cacodylate buffer before to processed for ultrastructure as previously described (Bannwarth et al., Brain, 2014, 137, 2329-2345). The protocol for contrasting sections was slightly modified, using a 5% Lanthanide salt solution (a mixture of Gadolinium acetate and Samarium acetate) for 7 minutes instead of uranium acetate. The cells were examined under a JEOL 1400 transmission electron microscope. The ultrastructure of mitochondria was classified in three categories. Normal: the mitochondria have numerous, parallel and well organized cristae. Intermediary: the mitochondria have less cristae, they show few round or swollen cristae or have a mild disorganisation. Abnormal: the mitochondria have swollen, disorganized or no cristae. More than 100 mitochondria were classified per condition. Nifuroxazide (46494-100MG Sigma) was resuspended in DMSO at 50 mM and stocked at −20° C. For each treatment, the Nifuroxazide was diluted in complete medium (Dulbecco's Modified Eagle Medium supplemented with 10% FBS, penicillin (100 U/mL) and streptomycin (0.1 mg/mL)) at the desired concentration. […] 72 h hours after treatment, the cells were analysed.

A further assay concerns patient motor neurons. The assay can be described thus: Electron microscopy of mitochondrial morphology in iPSC-derived motor neurons. The following applies: NFX 0.5 μM, 72 h. As for the experimental part:
Cells were seeded on 24 wells/plate, fixed with 1.6% glutaraldehyde in 0.1 M cacodylate buffer (pH 7.4) for 2 hours, rinsed and postfixed in 1% osmium tetroxide and 1% potassium ferrocyanide in 0.1 M cacodylate buffer before to processed for ultrastructure as previously described (Bannwarth et al., Brain, 2014, 137, 2329-2345). The protocol for contrasting sections was slightly modified, using a 5% Lanthanide salt solution (a mixture of Gadolinium acetate and Samarium acetate) for 7 minutes instead of uranium acetate. The cells were examined under a JEOL 1400 transmission electron microscope. The ultrastructure of mitochondria was classified in three categories. Normal: the mitochondria have numerous, parallel and well organized cristae. Intermediary: the mitochondria have less cristae, they show few round or swollen cristae or have a mild disorganisation. Abnormal: the mitochondria have swollen, disorganized or no cristae. More than 100 mitochondria were classified per condition. iPSC clones were generated from human fibroblasts as previously described (Genin et al., Acta Neuropathol., 2019, 138, 123-145). Motor neurons were differentiated from iPSC using previously described and validated protocols with some modifications. Briefly, iPSC clones were detached by Accutase treatment to form small clusters. […]

The subject of another assay is STAT3. The assay can be described thus: Western blot of STAT3 expression after treatment. The following applies: patient and control fibroblasts, NFX 1 or 5 μM, 72 h. Here is the method: The concentration of proteins was determined using the Pierce BCA assay kit (Thermo Fisher Scientific). 20 μg of total protein extracts were separated on acrylamide-SDS gels and transferred to PVDF membranes (Millipore). Signals were detected using a chemoluminescence system (Immobilon Western HRP Chemilumiscent substrates, Millipore). ImageJ was used to quantify protein signals. Nifuroxazide (46494-100MG Sigma) was resuspended in DMSO at 50 mM and stocked at −20° C. For each treatment, the Nifuroxazide was diluted in complete medium (Dulbecco's Modified Eagle Medium supplemented with 10% FBS, penicillin (100 U/mL) and streptomycin (0.1 mg/mL)) at the desired concentration. The cell medium was discarded and replaced by the medium with Nifuroxazide. 72 h hours after treatment, the cells were analysed.

Regarding `O=C(N/N=C/c1ccc([N+](=O)[O-])o1)c1ccc(O)cc1` [NFX, (E)-4-hydroxy-N′-((5-nitrofuran-2-yl)methylene)benzohydrazide], the 50% inhibitory concentration (IC50) in assay [1] is approximately 10 µM. The “mitochondrial morphology and cristae shape (EM)” value with patient fibroblasts was “improved”. The “mitochondrial morphology and cristae shape (EM)” value with patient motor neurons is listed as “improved”. Besides, in the assay on STAT3, the STAT3 protein level entry is given as “dose-dependent decrease” and the pSTAT3Y705 protein level result is given as “dose-dependent decrease”.

(Values after patent US20250025439A1, “DERIVATIVES OF NIFUROXAZIDE FOR USE IN THE TREATMENT OF MITOCHONDRIAL DISORDERS AND NEURODEGENERATIVE DISEASES” (priority 2021, published 2025).)
